Earlier results as cited in patent publication US20120034276A1, “SOLID PREPARATION” (ASKA Pharmaceutical Co., Ltd., priority 2009, published 2012).
Residues, ends and D or L forms follow the SMILES beside them.

Conditions: numeral in parenthesis, for reference; first or second dissociation step

SMILES	acid dissociation constant pKa
NCC(=O)NC(Cc1c[nH]cn1)C(=O)NCC(=O)O (racemic) [glycyl-DL-histidylglycine]	3.26
O=C(O)c1cccc(C(=O)O)n1 [2,6-pyridinedicarboxylic acid]	2.09
C[C@H](N)C(=O)N[C@@H](C)C(=O)O [L-alanyl-L-alanine] (H-Ala-Ala-OH)	3.20
C[C@H](N)C(=O)NCC(=O)O [L-alanylglycine] (H-Ala-Gly-OH)	3.10
C[C@H](N)C(=O)NCC(=O)NCC(=O)NCC(=O)O [L-alanylglycylglycylglycine] (H-AGGG-OH)	3.18
N[C@@H](Cc1c[nH]cn1)C(=O)NCC(=O)O [L-histidylglycine] (H-His-Gly-OH)	2.84
CN(C)CC(=O)O [N,N-dimethylglycine]	2.08
CNCC(=O)O [N-methylglycine]	2.20
C[C@H](N)C(=O)O [alanine]	2.30
Nc1ccc(C(=O)O)cc1 [aminobenzoic acid]	2.02-3.12
N=C(N)NCCC[C@H](N)C(=O)O [arginine]	2.05
N[C@@H](CC(=O)O)C(=O)O [aspartic acid]	1.93
O=C(O)CC(O)(CC(=O)O)C(=O)O [citric acid]	2.87
NC(=O)NCCC[C@H](N)C(=O)O [citrulline]	2.43
O=C(O)[C@H](O)[C@@H](O)[C@H](O)[C@H](O)CO [gluconic acid]	3.86
N[C@@H](CCC(=O)O)C(=O)O [glutamic acid]	2.18
O=C(O)CO [glycolic acid]	3.63
C[C@H](NC(=O)CN)C(=O)O [glycyl-L-alanine] (H-Gly-Ala-OH)	3.07
NCC(=O)N[C@@H](Cc1c[nH]cn1)C(=O)O [glycyl-L-histidine] (H-Gly-His-OH)	2.54

SMILES	acid dissociation constant pKa
C[C@H](NC(=O)CNC(=O)CN)C(=O)O [glycylglycyl-L-alanine]	3.18
NCC(=O)NCC(=O)N[C@@H](Cc1c[nH]cn1)C(=O)O [glycylglycyl-L-histidine] (H-Gly-Gly-His-OH)	2.72
NCC(=O)NCC(=O)NCC(=O)N[C@@H](Cc1c[nH]cn1)C(=O)O [glycylglycylglycyl-L-histidine] (H-GGGH-OH)	2.90
O=CC(=O)O [glyoxylic acid]	3.18
CC(O)C(=O)O (centres unmarked) [lactic acid]	3.66
NCCCC[C@H](N)C(=O)O [lysine]	2.04
O=C(O)CC(O)C(=O)O (centres unmarked) [malic acid]	3.24
CSCC[C@H](N)C(=O)O [methionine]	2.15
CCCC[C@H](N)C(=O)O [norleucine]	2.30
N[C@@H](Cc1ccccc1)C(=O)O [phenylalanine]	2.26
O=[PH](O)O [phosphonic acid]	1.5
CC(=O)C(=O)O [pyruvic acid]	2.26
N[C@@H](CO)C(=O)O [serine]	2.13
O=C(O)CCC(=O)O [succinic acid]	4.00
O=C(O)C(O)C(O)C(=O)O (centres unmarked) [tartaric acid]	2.82-2.99
C[C@@H](O)[C@H](N)C(=O)O [threonine]	2.21
N[C@@H](Cc1c[nH]c2ccccc12)C(=O)O [tryptophan]	2.35
CC(C)[C@H](N)C(=O)O [valine]	2.26
